The source of these data is ChEMBL document CHEMBL1671744 (Antimicrob Agents Chemother, 2010).

Converted amounts (≈) assume the structure as drawn. Where a SMILES comes first, the peptide text is derived from it. [ ]: non-standard residue; d: D form. The star is where a group is joined. Leu(5,5,5,5',5',5'-F6) = N[C@@H](CC(C(F)(F)F)C(F)(F)F)C(=O)O; Undecanoyl = CCCCCCCCCCC(=O)*

For orientation: HC50 means the concentration giving 50% haemolysis. A higher HC50 goes with weaker haemolysis.

One series deals with Staphylococcus aureus. Description: Antimicrobial activity against Staphylococcus aureus. The class given is functional.
A further series relates to Escherichia coli. Nature of the series: Antimicrobial activity against Escherichia coli. The class given is functional.
For the next series, the system named is Pseudomonas aeruginosa. Nature of the series: microbe, parasite or virus in culture. The class given is functional.
For series [1] the following is noted: erythrocyte.
For another series, the system named is Aspergillus fumigatus. Nature of the series: Antimicrobial activity against Aspergillus fumigatus. The class given is functional.
Another series concerns Bacillus subtilis. Nature of the series: Antimicrobial activity against Bacillus subtilis. The class given is functional.

In the case of `N=C(N)NCCC[C@H](NC(=O)[C@H](Cc1c[nH]c2ccccc12)NC(=O)[C@H](CCCNC(=N)N)NC(=O)[C@H](Cc1c[nH]c2ccccc12)NC(=O)[C@@H](N)CCCNC(=N)N)C(=O)N[C@@H](Cc1c[nH]c2ccccc12)C(N)=O` (H-RWRWRW-NH2), the MIC in the series on Staphylococcus aureus is 8 µM (≈ 8.35 µg/mL); against Escherichia coli, 16 µM (≈ 16.7 µg/mL). In “in vitro” (erythrocyte), this compound yielded an HC50 of 210 µM.
In the case of `N=C(N)NCCC[C@H](NC(=O)[C@H](Cc1c[nH]c2ccccc12)NC(=O)[C@H](CCCNC(=N)N)NC(=O)[C@H](Cc1c[nH]c2ccccc12)NC(=O)[C@H](CCCNC(=N)N)NC(=O)[C@H](Cc1c[nH]c2ccccc12)NC(=O)[C@@H](N)CCCNC(=N)N)C(=O)N[C@@H](Cc1c[nH]c2ccccc12)C(N)=O` (H-RWRWRWRW-NH2), the MIC was determined as 5.1 µM (≈ 7.07 µg/mL) against Staphylococcus aureus and 9.6 µM (≈ 13.3 µg/mL) against Escherichia coli. In “in vitro” (erythrocyte), this compound returned an HC50 of 100 µM.
On to `CC[C@H](C)[C@H](NC(=O)[C@H](CC(C)C)NC(=O)[C@H](CCCCN)NC(=O)[C@H](CC(C)C)NC(=O)[C@H](CC(C)C)NC(=O)[C@@H](NC(=O)[C@H](Cc1cnc[nH]1)NC(=O)[C@H](CC(C)C)NC(=O)[C@@H](NC(=O)[C@@H](NC(=O)[C@H](CCCCN)NC(=O)[C@H](CCCCN)NC(=O)[C@H](CC(C)C)NC(=O)[C@H](CO)NC(=O)[C@H](CCCCN)NC(=O)[C@H](Cc1ccccc1)NC(=O)[C@@H](NC(=O)[C@H](CCCCN)NC(=O)[C@H](CC(C)C)NC(=O)[C@H](Cc1ccccc1)NC(=O)[C@H](CO)NC(=O)[C@H](Cc1c[nH]c2ccccc12)NC(=O)[C@H](CCCCN)NC(C)=O)[C@@H](C)O)[C@@H](C)O)C(C)C)[C@@H](C)O)C(=O)N[C@@H](CO)C(=O)N[C@@H](CO)C(N)=O`, for which the MIC in the series on Pseudomonas aeruginosa worked out at 168 µM (≈ 502 µg/mL). The compound also had an MHC in series [1] of 1.3 µM.
The like results for `CC[C@H](C)[C@H](NC(=O)[C@H](C)NC(=O)[C@H](CCCCN)NC(=O)[C@H](C)NC(=O)[C@H](C)NC(=O)[C@@H](NC(=O)[C@H](Cc1cnc[nH]1)NC(=O)[C@H](CC(C)C)NC(=O)[C@@H](NC(=O)[C@@H](NC(=O)[C@H](CCCCN)NC(=O)[C@H](CCCCN)NC(=O)[C@H](C)NC(=O)[C@H](CO)NC(=O)[C@H](CCCCN)NC(=O)[C@H](Cc1ccccc1)NC(=O)[C@@H](NC(=O)[C@H](CCCCN)NC(=O)[C@H](C)NC(=O)[C@H](Cc1ccccc1)NC(=O)[C@H](CO)NC(=O)[C@H](CCCCN)NC(=O)[C@H](Cc1c[nH]c2ccccc12)NC(=O)[C@H](CCCCN)NC(C)=O)[C@@H](C)O)[C@@H](C)O)C(C)C)[C@@H](C)O)C(=O)N[C@@H](CO)C(=O)N[C@@H](CO)C(N)=O` (Ac-KWKSFAKTFKSAKKTVLHTAAKAISS-NH2) were, in that order, 168 µM (≈ 488 µg/mL) and 336 µM.
Consider `CCCCCCCCCCC(=O)NCC(=O)N[C@H](C(=O)NCC(=O)N[C@@H](CCCCN)C(=O)N[C@@H](Cc1ccccc1)C(=O)N[C@@H](CC(C)C)C(=O)N[C@@H](Cc1cnc[nH]1)C(=O)N[C@@H](CO)C(=O)N[C@@H](C)C(=O)N[C@@H](CCCCN)C(=O)N[C@@H](CCCCN)C(=O)N[C@@H](Cc1c[nH]c2ccccc12)C(=O)NCC(=O)N[C@@H](CCCCN)C(=O)N[C@@H](C)C(=O)N[C@@H](Cc1ccccc1)C(=O)N[C@H](C(=O)NCC(=O)N[C@@H](CCC(=O)O)C(=O)N[C@H](C(=O)N[C@@H](CCSC)C(=O)N[C@@H](CC(N)=O)C(=O)N[C@@H](CO)C(N)=O)[C@@H](C)CC)C(C)C)[C@@H](C)CC` (Undecanoyl-GIGKFLHSAKKWGKAFVGEIMNS-NH2), for which the MIC against Aspergillus fumigatus was 6.25 µM (≈ 16.7 µg/mL).
On to `CC(C)[C@H](NC(=O)[C@H](CCCNC(=N)N)NC(=O)CNC(=O)[C@@H](NC(=O)[C@@H]1CCCN1C(=O)[C@@H](N)Cc1ccccc1)C(C)C)C(=O)N[C@@H](Cc1cnc[nH]1)C(=O)N[C@@H](CCCNC(=N)N)C(=O)N[C@@H](CC(C(F)(F)F)C(F)(F)F)C(=O)N[C@@H](CC(C(F)(F)F)C(F)(F)F)C(=O)N[C@@H](CCCNC(=N)N)C(=O)N[C@@H](CCCCN)C(=O)O` (H-FPVGRVHR[Leu(5,5,5,5',5',5'-F6)][Leu(5,5,5,5',5',5'-F6)]RK-OH), for which the MIC was 5.9 µM (≈ 9.99 µg/mL) in the series on Bacillus subtilis and 23 µM (≈ 39 µg/mL) against Escherichia coli. The same compound had a concentration for 50% haemolysis (HC50) in the series “in vitro” (red blood cells) above 235 µM.
With `N=C(N)NCCC[C@H](NC(=O)[C@H](Cc1c[nH]c2ccccc12)NCCCC[C@H](N[C@@H](Cc1c[nH]c2ccccc12)C(=O)N[C@@H](CCCNC(=N)N)C(=O)O)C(=O)NCCCC[C@H](NC(=O)[C@H](CCCCN[C@@H](Cc1c[nH]c2ccccc12)C(=O)N[C@@H](CCCNC(=N)N)C(=O)O)N[C@@H](Cc1c[nH]c2ccccc12)C(=O)N[C@@H](CCCNC(=N)N)C(=O)O)C(=O)NCCC(N)=O)C(=O)O`, the MIC turned out to be 8.7 µM (≈ 16.1 µg/mL) against Staphylococcus aureus and 2.4 µM (≈ 4.43 µg/mL) in the series on Escherichia coli. In the series “in vitro” (red blood cells), this compound registered an HC50 of 760 µM.
As to `CC(C)C[C@H](NC(=O)[C@H](CC(C)C)NC(=O)[C@H](CCCNC(=N)N)NC(=O)[C@H](Cc1cnc[nH]1)NC(=O)[C@@H](NC(=O)[C@H](CCCNC(=N)N)NC(=O)CNC(=O)[C@@H](NC(=O)[C@@H]1CCCN1C(=O)[C@@H](N)Cc1ccccc1)C(C)C)C(C)C)C(=O)N[C@@H](CCCNC(=N)N)C(=O)N[C@@H](CCCCN)C(=O)O` (H-FPVGRVHRLLRK-OH), the MIC against Bacillus subtilis and with Escherichia coli was above 173 µM each time. The compound also had an HC50 in “in vitro” (red blood cells) above 270 µM.
Turning to `CC[C@@H](C)[C@@H](NC(=O)[C@@H](C)NC(=O)[C@@H](CCCCN)NC(=O)[C@@H](CC(C)C)NC(=O)[C@@H](C)NC(=O)[C@H](NC(=O)[C@@H](Cc1cnc[nH]1)NC(=O)[C@@H](CC(C)C)NC(=O)[C@H](NC(=O)[C@H](NC(=O)[C@@H](CCCCN)NC(=O)[C@@H](CCCCN)NC(=O)[C@@H](C)NC(=O)[C@@H](CO)NC(=O)[C@@H](CCCCN)NC(=O)[C@@H](Cc1ccccc1)NC(=O)[C@H](NC(=O)[C@@H](CCCCN)NC(=O)[C@@H](CC(C)C)NC(=O)[C@@H](Cc1ccccc1)NC(=O)[C@@H](CO)NC(=O)[C@@H](CCCCN)NC(=O)[C@@H](Cc1c[nH]c2ccccc12)NC(=O)[C@@H](CCCCN)NC(C)=O)[C@H](C)O)[C@H](C)O)C(C)C)[C@H](C)O)C(=O)N[C@H](CO)C(=O)N[C@H](CO)C(N)=O`, the figures for the MIC with Escherichia coli and with Pseudomonas aeruginosa were 1.1 µM (≈ 3.29 µg/mL) and 5.3 µM (≈ 15.9 µg/mL), respectively.
For the compound `CSCC[C@H](NC(=O)[C@@H](NC(=O)[C@H](CCCNC(=N)N)NC(=O)[C@H](Cc1ccccc1)NC(=O)[C@H](C)NC(=O)[C@H](C)NC(=O)[C@H](CCCCN)NC(=O)[C@H](CCCNC(=N)N)NC(=O)[C@H](Cc1ccccc1)NC(=O)[C@H](C)NC(=O)[C@@H]1CCCN1C(=O)[C@@H](N)CCCNC(=N)N)C(C)C)C(=O)N[C@@H](CCCNC(=N)N)C(=O)N[C@@H](C)C(=O)N[C@@H](CS)C(=O)N[C@H](C(N)=O)C(C)C` (H-RPAFRKAAFRVMRACV-NH2), in the series with Pseudomonas aeruginosa, the MIC was determined as 4 µM (≈ 7.51 µg/mL). This compound also showed an MHC in series [1] above 1300 µM.
Consider `CC[C@H](C)[C@H](NC(=O)[C@H](CCCCN)NC(=O)[C@@H](NC(=O)[C@H](CCC(N)=O)NC(=O)[C@@H](N)CCCNC(=N)N)[C@@H](C)CC)C(=O)N[C@@H](Cc1c[nH]c2ccccc12)C(=O)N[C@@H](Cc1ccccc1)C(=O)N[C@@H](CCC(N)=O)C(=O)N[C@@H](CC(N)=O)C(=O)N[C@@H](CCCNC(=N)N)C(=O)N[C@@H](CCCNC(=N)N)C(=O)N[C@@H](CCSC)C(=O)N[C@@H](CCCCN)C(=O)N[C@@H](Cc1c[nH]c2ccccc12)C(=O)N[C@@H](CCCCN)C(=O)N[C@@H](CCCCN)C(N)=O` [PENETRATIN], for which the MIC in the series with Staphylococcus aureus came to 1 µM (≈ 2.25 µg/mL); with Escherichia coli, 2 µM (≈ 4.49 µg/mL). The compound further gave an MHC in series [1] above 200 µM.
As for `CCCCCCCCCCCCCCCC(=O)N[C@@H](CCCCN)C(=O)N[C@@H](CCCCN)C(=O)N[C@@H](CCCCN)C(N)=O`, the MIC against Aspergillus fumigatus was 3.1 µM (≈ 1.98 µg/mL); in the series on Escherichia coli it was 1.56 µM (≈ 0.998 µg/mL). The HC50 in the series “in vitro” (red blood cells) came to 100 µM.
As to `CC[C@H](C)[C@H](NC(=O)CN)C(=O)NCC(=O)N[C@@H](CCCCN)C(=O)N[C@@H](Cc1ccccc1)C(=O)N[C@@H](CC(C)C)C(=O)N[C@@H](Cc1c[nH]cn1)C(=O)N[C@@H](CO)C(=O)N[C@@H](C)C(=O)N[C@@H](CCCCN)C(=O)N[C@@H](CCCCN)C(=O)N[C@@H](Cc1ccccc1)C(=O)NCC(=O)N[C@@H](CCCCN)C(=O)N[C@@H](C)C(=O)N[C@@H](Cc1ccccc1)C(=O)N[C@H](C(=O)NCC(=O)N[C@@H](CCC(=O)O)C(=O)N[C@H](C(=O)N[C@@H](CCSC)C(=O)N[C@@H](CC(N)=O)C(=O)N[C@@H](CO)C(=O)O)[C@@H](C)CC)C(C)C` [MAGAININ 2] (H-GIGKFLHSAKKFGKAFVGEIMNS-OH), the MIC against Bacillus subtilis and with Escherichia coli was 1 µM (≈ 2.47 µg/mL) each time. Further, in the series “in vitro” (red blood cells), the HC50 worked out at 70.6 µM.
Regarding `N=C(N)NCCC[C@H](NC(=O)[C@H](Cc1c[nH]c2ccccc12)NC(=O)[C@H](CCCNC(=N)N)NC(=O)[C@H](Cc1c[nH]c2ccccc12)NC(=O)[C@H](CCCNC(=N)N)NC(=O)[C@H](Cc1c[nH]c2ccccc12)NC(=O)[C@H](CCCNC(=N)N)NC(=O)[C@H](Cc1c[nH]c2ccccc12)NC(=O)[C@@H](N)CCCNC(=N)N)C(=O)N[C@@H](Cc1c[nH]c2ccccc12)C(N)=O`, the MIC amounted to 3.6 µM (≈ 6.22 µg/mL) with Staphylococcus aureus and 6.2 µM (≈ 10.7 µg/mL) in the series on Escherichia coli. The compound further had an HC50 in the series “in vitro” (erythrocyte) of 76 µM.
In the case of `CC[C@H](C)[C@H](NC(=O)CN)C(=O)NCC(=O)N[C@@H](CCCCN)C(=O)N[C@@H](Cc1ccccc1)C(=O)N[C@@H](CC(C)C)C(=O)N[C@@H](Cc1cnc[nH]1)C(=O)N[C@@H](CO)C(=O)N[C@@H](C)C(=O)N[C@@H](CCCCN)C(=O)N[C@@H](CCCCN)C(=O)N[C@@H](Cc1c[nH]c2ccccc12)C(=O)NCC(=O)N[C@@H](CCCCN)C(=O)N[C@@H](C)C(=O)N[C@@H](Cc1ccccc1)C(=O)N[C@H](C(=O)NCC(=O)N[C@@H](CCC(=O)O)C(=O)N[C@H](C(=O)N[C@@H](CCSC)C(=O)N[C@@H](CC(N)=O)C(=O)N[C@@H](CO)C(N)=O)[C@@H](C)CC)C(C)C` (H-GIGKFLHSAKKWGKAFVGEIMNS-NH2), in the series with Aspergillus fumigatus, the MIC was above 50 µM.
